Assay [1] deals with T1, catalytic domain (JH1, amino acids 826-1132) of human JAK2 (Homo sapiens, UniProt O60674).
T1 construct: catalytic domain (JH1, amino acids 826-1132) of human JAK2; FLAG (N); purchased Carna Biosciences 08-445-20N; host or cells: baculovirus expression system
In words: JAK2 LanthaScreen JH1 Binding Assay. Conditions: JAK2 JH1 (1.5 nM), 50 nM fluorescent JAK2-JH1 tracer, 2 hours at 25° C.; read-out: JH1 BIND. The method in brief: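 FLAG-tagged, biotinylated JAK2 JH1 (aa 826-1132, baculovirus-expressed; 1.5 nM) incubated 2 h at 25° C with compounds, 50 nM fluorescent tracer and 0.5 nM Streptavidin-Tb in Tris pH 7.5 buffer with MgCl2, Brij-35, BSA, EGTA, glycerol, DTT. Nonspecific binding defined with 2 mM ATP; TR-FRET IC50 from four-parameter fit.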
(Time-resolved FRET reads energy transfer from a long-lived donor to a nearby acceptor.)

Assay [2] addresses T2, pseudo-kinase domain (JH2, amino-acids 536-812 with 3 surface mutations W659A, W777A, F794H) of human V617F mutant JAK2 (Homo sapiens, UniProt O60674, F794H/V617F/W659A/W777A).
T2 construct: pseudo-kinase domain (JH2, amino-acids 536-812 with 3 surface mutations W659A, W777A, F794H); His (C); Avi (biotinylated) (C); purchased BPS Bioscience 79498; host or cells: baculovirus expression system
The assay is described as follows: JAK2 LanthaScreen JH2-V617F Binding Assay. The settings on record: JAK2 JH2-V617F (0.26 nM), 50 nM Fluorescent JAK2-JH2 Tracer, 1 hour at 25° C.; read-out: JH2 BIND V617F. The method in brief: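 Competition of compounds with a fluorescent tracer (50 nM) for the biotinylated domain (0.26 nM), detected via streptavidin-Tb (0.25 nM) after 1 h at 25° C in pH 7.5 Tris buffer containing glycerol, BSA and Brij-35. ATP at 2 mM gave background. IC50 by four-parameter fit.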

The target in assay [3] is T3, pseudo-kinase domain (JH2, amino-acids 536-812 with 3 surface mutations W659A, W777A, F794H) of human Wild Type JAK2 (Homo sapiens, UniProt O60674, F794H/W659A/W777A).
T3 construct: pseudo-kinase domain (JH2, amino-acids 536-812 with 3 surface mutations W659A, W777A, F794H); His (C); Avi (biotinylated) (C); purchased BPS Bioscience 79463; host or cells: baculovirus expression system
The assay is described as follows: JAK2 LanthaScreen JH2-WT Binding Assay. The settings on record: JAK2 JH2-WT (0.145 nM), 50 nM Fluorescent JAK2-JH2 Tracer, 1 hour at 25° C.; read-out: JH2 BIND WT. The method in brief: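 Biotinylated His-Avi-tagged JAK2 JH2 (0.145 nM), baculovirus-expressed, incubated with compounds, 50 nM fluorescent JH2 tracer and 0.25 nM streptavidin-Tb, 1 h at 25° C in pH 7.5 Tris buffer with MgCl2 and DTT. Non-specific binding defined with 2 mM ATP. TR-FRET read; IC50 from four-parameter fit.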

T3 sequence (O60674 536-812 W659A/W777A/F794H): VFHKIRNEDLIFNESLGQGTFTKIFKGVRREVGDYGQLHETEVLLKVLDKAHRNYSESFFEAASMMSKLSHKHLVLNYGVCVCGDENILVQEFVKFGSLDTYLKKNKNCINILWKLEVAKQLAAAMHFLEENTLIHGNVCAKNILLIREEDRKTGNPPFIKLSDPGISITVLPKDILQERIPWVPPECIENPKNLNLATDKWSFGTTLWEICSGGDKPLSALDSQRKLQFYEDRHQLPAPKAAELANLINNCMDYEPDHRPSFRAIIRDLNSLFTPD
T1 sequence (O60674 826-1132): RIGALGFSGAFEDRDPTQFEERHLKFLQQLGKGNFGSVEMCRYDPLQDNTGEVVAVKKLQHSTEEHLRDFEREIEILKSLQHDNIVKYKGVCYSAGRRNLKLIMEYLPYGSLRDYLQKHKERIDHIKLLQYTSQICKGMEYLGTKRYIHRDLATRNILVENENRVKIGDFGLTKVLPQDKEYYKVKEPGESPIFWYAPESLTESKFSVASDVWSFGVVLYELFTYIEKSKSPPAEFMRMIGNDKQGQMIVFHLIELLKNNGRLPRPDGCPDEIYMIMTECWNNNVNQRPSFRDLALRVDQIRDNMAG
T2 sequence (O60674 536-812 V617F/W659A/W777A/F794H): as the sequence (O60674 536-812 W659A/W777A/F794H) above, with V82F counted along it

For the compound `COc1nn(C)cc1-c1[nH]c2ncc3c(c2c1-c1ccc2c(cnn2C)c1)n(C1CCOCC1)c(=O)n3C` [Example 91, 7-(3-methoxy-1-methyl-1H-pyrazol-4-yl)-3-methyl-8-(1-methyl-1H-indazol-5-yl)-1-(tetrahydro-2H-pyran-4-yl)-3,6-dihydroimidazo[4,5-d]pyrrolo[2,3-b]pyridin-2(1H)-one], the IC50 in assay [1] was above 1 µM; in assay [2], at most 0.01 µM; in assay [3], at most 0.01 µM.
As to `Cn1ncc2cc(-c3c(-c4cnn5c4CCC5)[nH]c4ncc5c(c34)n(C3CCOCC3)c(=O)n5C)ccc21` [Example 92, 7-(5,6-Dihydro-4H-pyrrolo[1,2-b]pyrazol-3-yl)-3-methyl-8-(1-methyl-1H-indazol-5-yl)-1-(tetrahydro-2H-pyran-4-yl)-3,6-dihydroimidazo[4,5-d]pyrrolo[2,3-b]pyridin-2(1H)-one], the values for the IC50 in assay [1], in assay [2] and in assay [3] were above 1 µM, at most 0.01 µM and at most 0.01 µM, respectively.
Consider `Cn1ncc2cc(-c3c(C(O)C4CC4)[nH]c4ncc5c(c34)n(C3CCOCC3)c(=O)n5C)ccc21` (stereo not drawn) [Example 95, 7-(Cyclopropyl(hydroxy)methyl)-3-methyl-8-(1-methyl-1H-indazol-5-yl)-1-(tetrahydro-2H-pyran-4-yl)-3,6-dihydroimidazo[4,5-d]pyrrolo[2,3-b]pyridin-2(1H)-one], for which the IC50 in assay [1] was above 1 µM; in assay [2], 0.01 to 0.1 µM; in assay [3], at most 0.01 µM.
On the same counts, the results for `CC(C)n1c(=O)n(C)c2cnc3[nH]c(Cc4ccc(C#N)cc4)c(-c4ccc5c(cnn5C)c4)c3c21` [Example 96, 4-((1-Isopropyl-3-methyl-8-(1-methyl-1H-indazol-5-yl)-2-oxo-1,2,3,6-tetrahydroimidazo [4,5-d]pyrrolo[2,3-b]pyridin-7-yl)methyl) benzonitrile] are above 1 µM, above 1 µM and above 1 µM.
The like results for `CCc1[nH]c2ncc3c(c2c1-c1ccc2c(cnn2C)c1)n(C1CCCC1)c(=O)n3C` [Example 97, 1-Cyclopentyl-7-ethyl-3-methyl-8-(1-methyl-1H-indazol-5-yl)-3,6-dihydroimidazo[4,5-d]pyrrolo[2,3-b]pyridin-2(1H)-one] were, in that order, above 1 µM, 0.1 to 0.5 µM and 0.01 to 0.1 µM.
As to `Cn1ncc2cc(-c3c(C(=O)NC4CC4)[nH]c4ncc5c(c34)n(C3CCCC3)c(=O)n5C)ccc21` [Example 98, 1-Cyclopentyl-N-cyclopropyl-3-methyl-8-(1-methyl-1H-indazol-5-yl)-2-oxo-1,2,3,6-tetrahydroimidazo [4,5-d]pyrrolo[2,3-b]pyridine-7-carboxamide], the results for the IC50 in assay [1], in assay [2] and in assay [3] were above 1 µM, 0.01 to 0.1 µM and 0.01 to 0.1 µM, respectively.
`Cn1ncc2cc(-c3c(S(C)(=O)=O)[nH]c4ncc5c(c34)n(C3CCCC3)c(=O)n5C)ccc21` [Example 99, 1-Cyclopentyl-3-methyl-8-(1-methyl-1H-indazol-5-yl)-7-(methylsulfonyl)-3,6-dihydroimidazo [4,5-d]pyrrolo[2,3-b] pyridin-2(1H)-one]: the IC50 in assay [1] is above 1 µM; in assay [2], 0.5 to 1 µM; in assay [3], 0.5 to 1 µM.
With `CC(C)n1c(=O)n(C)c2cnc3[nH]c(-c4cnn(C)c4)c(C#Cc4ccccc4)c3c21` [Example 100, 1-Isopropyl-3-methyl-7-(1-methyl-1H-pyrazol-4-yl)-8-(phenylethynyl)-3,6-dihydroimidazo[4,5-d]pyrrolo[2,3-b]pyridin-2(1H)-one], the values for the IC50 in assay [1], in assay [2] and in assay [3] were 0.5 to 1 µM, 0.1 to 0.5 µM and 0.1 to 0.5 µM, respectively.
Take `Cn1cc(-c2[nH]c3ncc4c(c3c2-c2ccc3c(cnn3C)c2)n([C@H]2C[C@@H](CC#N)C2)c(=O)n4C)cn1` [Example 101, 2-((1S,3S)-3-(3-Methyl-8-(1-methyl-1H-indazol-5-yl)-7-(1-methyl-1H-pyrazol-4-yl)-2-oxo-3,6-dihydroimidazo[4,5-d]pyrrolo[2,3-b]pyridin-1(2H)-yl)cyclobutyl)acetonitrile]: the IC50 is 0.1 to 0.5 µM in assay [1], at most 0.01 µM in assay [2] and at most 0.01 µM in assay [3].
In the case of `Cn1cc(-c2[nH]c3ncc4c(c3c2-c2ccc3c(cnn3C)c2)n([C@H]2CC[C@@H](CC#N)CC2)c(=O)n4C)cn1` [Example 102, 2-((1S,4S)-4-(3-Methyl-8-(1-methyl-1H-indazol-5-yl)-7-(1-methyl-1H-pyrazol-4-yl)-2-oxo-3,6-dihydroimidazo[4,5-d]pyrrolo[2,3-b]pyridin-1(2H)-yl)cyclohexyl)acetonitrile], the results for the IC50 in assay [1], in assay [2] and in assay [3] were 0.01 to 0.1 µM, at most 0.01 µM and at most 0.01 µM, respectively.
As to `Cn1ncc2cc(-c3c(-c4cnn(CC(C)(C)O)c4)[nH]c4ncc5c(c34)n([C@H]3CC[C@@H](CC#N)CC3)c(=O)n5C)ccc21` [Example 103, 2-((1S,4S)-4-(7-(1-(2-Hydroxy-2-methylpropyl)-1H-pyrazol-4-yl)-3-methyl-8-(1-methyl-1H-indazol-5-yl)-2-oxo-3,6-dihydroimidazo[4,5-d]pyrrolo[2,3-b]pyridin-1(2H)-yl)cyclohexyl)acetonitrile], the IC50 is 0.1 to 0.5 µM in assay [1], at most 0.01 µM in assay [2] and at most 0.01 µM in assay [3].
`COC(=O)N[C@H]1C[C@@H](n2c(=O)n(C)c3cnc4[nH]c(-c5cnn(C)c5)c(-c5ccc6c(cnn6C)c5)c4c32)C1` [Example 104, Methyl ((1S,3S)-3-(3-methyl-8-(1-methyl-1H-indazol-5-yl)-7-(1-methyl-1H-pyrazol-4-yl)-2-oxo-3,6-dihydroimidazo[4,5-d]pyrrolo[2,3-b]pyridin-1(2H)-yl)cyclobutyl)carbamate]: the IC50 is 0.5 to 1 µM in assay [1], at most 0.01 µM in assay [2] and at most 0.01 µM in assay [3].
Turning to `CCOC(=O)N[C@H]1C[C@@H](n2c(=O)n(C)c3cnc4[nH]c(-c5cnn(C)c5)c(-c5ccc(C#N)cc5)c4c32)C1` [Example 105, Ethyl ((1S,3S)-3-(8-(4-cyanophenyl)-3-methyl-7-(1-methyl-1H-pyrazol-4-yl)-2-oxo-3,6-dihydroimidazo[4,5-d]pyrrolo[2,3-b]pyridin-1(2H)-yl)cyclobutyl)carbamate], the IC50 in assay [1] is above 1 µM; in assay [2] it was at most 0.01 µM; in assay [3], at most 0.01 µM.
For the compound `CCOC(=O)N[C@H]1C[C@@H](n2c(=O)n(C)c3cnc4[nH]c(-c5cnn(C)c5)c(-c5ccc(OC)cc5)c4c32)C1` [Example 106, Ethyl ((1S,3S)-3-(8-(4-methoxyphenyl)-3-methyl-7-(1-methyl-1H-pyrazol-4-yl)-2-oxo-3,6-dihydroimidazo[4,5-d]pyrrolo[2,3-b]pyridin-1(2H)-yl)cyclobutyl)carbamate], the figures for the IC50 in assay [1], in assay [2] and in assay [3] were above 1 µM, at most 0.01 µM and at most 0.01 µM, respectively.
With `CC(C)n1c(=O)n(C)c2cnc3[nH]c(-c4cnn(C)c4)c(C4CCN(C(=O)Cc5ccc(S(C)(=O)=O)cc5)CC4)c3c21` [Example 107, 1-Isopropyl-3-methyl-7-(1-methyl-1H-pyrazol-4-yl)-8-(1-(2-(4-(methylsulfonyl)phenyl)acetyl)piperidin-4-yl)-3,6-dihydroimidazo[4,5-d]pyrrolo[2,3-b]pyridin-2(1H)-one], the IC50 lay within 0.1 to 0.5 µM in assay [1], 0.01 to 0.1 µM in assay [2] and 0.01 to 0.1 µM in assay [3].
As for `COc1nn(C)cc1-c1[nH]c2ncc3c(c2c1-c1ccc2c(cnn2C)c1)n([C@H]1CC[C@@H](CC#N)CC1)c(=O)n3C` [Example 108, 2-((1S,4S)-4-(7-(3-methoxy-1-methyl-1H-pyrazol-4-yl)-3-methyl-8-(1-methyl-1H-indazol-5-yl)-2-oxo-3,6-dihydroimidazo[4,5-d]pyrrolo[2,3-b]pyridin-1(2H)-yl)cyclohexyl)acetonitrile], the IC50 is above 1 µM in assay [1], at most 0.01 µM in assay [2] and at most 0.01 µM in assay [3].
As for `[2H]C([2H])([2H])n1ncc2cc(-c3c(-c4cn(C)nc4OC)[nH]c4ncc5c(c34)n(C3CCOCC3)c(=O)n5C)ccc21` [Example 109, 7-(3-Methoxy-1-methyl-1H-pyrazol-4-yl)-3-methyl-8-(1-(methyl-d3)-1H-indazol-5-yl)-1-(tetrahydro-2H-pyran-4-yl)-3,6-dihydroimidazo[4,5-d]pyrrolo[2,3-b]pyridin-2(1H)-one], the IC50 in assay [1] is above 1 µM; in assay [2], at most 0.01 µM; in assay [3], at most 0.01 µM.

These data come from patent US11780840B2 (Incyte Corporation, priority 2020, dated 2023).
